Among the data in a melting point compilation (Tetko et al.; mined from patent text by program, amines drawn as free bases though some values may be those of a salt) are melting point values, retold here.

What is called melting point is the temperature of the solid-liquid transition.

`CC(=O)N[C@H]1C(O)O[C@H](CO)[C@@H](F)[C@@H]1O` (some centres not stated) had a melting point of 180 °C. `O=C(O)/C(=N/OCc1ccccc1)c1ccc(OCCOc2ccc3ccccc3c2)s1`: the melting point fell in the range of 103 to 104 °C. Under `CCCCCCCCCCCCCCCCCC(=O)NCCOCCn1c(CCOC)nc2c(N)nc3ccccc3c21` stands 80 to 83 °C; under `CCCCc1nc(O)c(CC(=O)O)c(=O)n1Cc1ccc(C(=O)O)cc1`, 260 °C. To `CN1CCN(C)c2nc(c3ccccc3n2)NCC2CCCC(CNc3nc1nc1ccccc31)C2` belongs 284 to 285 °C. Under `O=S(=O)(F)c1ccc2ccccc2c1` stands 85 to 86 °C; under `Cc1sc2c(c1Br)C(=O)N(CCCCCl)CCC2`, 78 to 80 °C; under `COc1cccc(CNC(=O)c2nc3ccc(F)c(OCCc4ccc(C(=O)O)cc4)c3c(=O)[nH]2)c1`, 227 to 229 °C. With `COc1cc2nc(N3CCN(C(=O)C=Cc4ccccc4)CC3)nc(N)c2cc1OC`, the melting point was in the range of 245 to 248 °C. Take `CC12CCC3c4ccc(C(=O)O)cc4CCC3C1CCC2C(=O)c1ccc(S(C)(=O)=O)cc1` (configuration not stated): the melting point lay in the range of 283 to 286 °C. To `CCCn1nnn(-c2cc(OC)c(C(F)(F)F)cc2Cl)c1=O` belongs 82 to 83 °C; to `O=C(O)c1ccc([N+](=O)[O-])cc1-c1ccccc1`, 174 to 176 °C.

`CCCCCCC(=O)CCCC=O`: the melting point fell in the range of 33 to 34 °C. The compound `CCOC(=O)c1ccc(OCCC2CN(c3nnc(Br)s3)CCO2)cc1` (configuration not stated) had a melting point of 131 °C. Under `N#Cc1ccc(-c2ccc(Br)cc2)cc1` stands 147 to 148 °C.

In turn, `CC1(C)CCc2c(-c3ccoc3)nc3sc4c(NCCCN5CCCC5=O)ncnc4c3c2C1` yielded a melting point of 194 to 195 °C.

In turn, `CCCCOC(=O)c1ccc(Nc2nc(Nc3ccc(C(=O)OCCCC)cc3)nc(-c3cccn3Cc3ccccc3)n2)cc1` showed a melting point of 173 to 174 °C. Under `Cn1nc(-c2cc(F)c([N+](=O)[O-])cc2F)c(Br)c1C(F)(F)F` stands 45.5 °C; under `CC(=O)N1CCc2cc(C3=NNC(=O)CC3C)ccc21` (configuration not stated), 258 to 261 °C. Turning to `COc1ccccc1C1c2cc(NC(=O)CC(C)(C)C)c(C)c(C)c2OC1(C)C` (configuration not stated), the melting point was in the range of 169 to 170 °C.

Compound `CC(=O)N1CCC(Oc2ccc(N3CCOCC3)cc2)CC1` registered a melting point of 208 to 209 °C.

In the case of `N#Cc1nn(-c2c(Cl)cc(C(F)(F)F)cc2Cl)cc1C(=O)C(F)(F)C(F)(F)F`, the melting point came out at 120 °C.

`COC(=O)C1(C)COC(c2nc(-c3ccc(F)cc3)c(-c3ccnc(S(C)(=O)=O)n3)[nH]2)OC1` (configuration not stated): the melting point was in the range of 186 to 187 °C. Under `COCCOc1cc2c(cc1C#Cc1ccccc1)NC(=O)CC(c1cccc(-n3ccnc3)c1)=N2` stands 187 to 189 °C. Under `CCCCc1nc2cccc(C(=O)OCOC(=O)C(C)(C)C)c2n1Cc1ccc(-c2ccccc2-c2nnn[nH]2)cc1` stands 102 to 105 °C; under `O=S(=O)(Nc1cc(I)c(O)c2ccccc12)c1cccs1`, 134 to 136 °C; under `CN1CCc2cccc3c2C1Cc1ccc(O)c(O)c1-3` (configuration not stated), 158 to 160 °C. `Oc1ccc(-c2cc3cc(Br)cc(Br)c3o2)cc1` gave a melting point of 203 to 205 °C. To `Cc1cc(=O)c(Oc2ccc(F)cc2F)c(-c2ccc(S(C)=O)cc2)o1` (configuration not stated) belongs 158 to 159 °C; to `CCCc1cnn2c(O)cc(CC)nc12`, 279 to 281 °C. Under `CNC(=O)N1C2c3ccccc3OCC2(C(=O)OC)CN1C(=O)Nc1ccc(C(F)(F)F)cc1` (configuration not stated) stands 208 to 209 °C. Under `NC(=O)NNc1c(Cl)cccc1Cl` stands 288 to 290 °C; under `CC(Oc1ccc([N+](=O)[O-])cc1)C(=O)O` (configuration not stated), 139 to 141 °C; under `CCCCc1nc2ccc(C(=O)O)cc2n1Cc1ccc(-c2ccccc2-c2nnn[nH]2)cc1`, 258 to 259 °C. `CC(C)(C)OC(=O)N1CCC(N2Cc3cc(Br)ccc3C2=O)CC1` showed a melting point of 179 to 180 °C.

Consider `CC(C)(C)NS(=O)(=O)c1cccc(NC(=O)c2cnn3c(C(F)F)cc(-c4ccc(C(F)(F)F)cc4)nc23)c1`, for which the melting point turned out to be 228 °C.

The compound `CC(=O)NCC1CN(c2ccc(N3CCN(C=O)CC3)c(F)c2)C(=O)O1` (configuration not stated) yielded a melting point of 190 to 194 °C. Under `COC(=O)C1=CN(CCCc2ccccc2)C=C(C(=O)OC)C1c1ccc(OC)c(OC)c1` stands 107 to 113 °C; under `COC1(c2ccc(C)cc2)CCC(=NO)CC1` (configuration not stated), 114 to 116 °C.

Take `CCCn1nc(C2CC2)c(C(=O)OCC)c1Cc1ccc(-c2ccccc2-c2nnn(C(c3ccccc3)(c3ccccc3)c3ccccc3)n2)cc1`: the melting point is 154 to 159 °C.

Compound `CCCCOc1cc(CCS(=O)(=O)NC(=O)OCCOC)n(Cc2ccc(Cl)cc2Cl)n1` yielded a melting point of 82 to 86 °C.

Turning to `O=C(Nc1ccc(C2CN(C(=O)OCc3ccccc3)C2)c(F)c1)OCc1ccccc1`, the melting point amounted to 95 °C. To `Cc1cc(-c2cccc(C(F)(F)F)c2)nn2c(C)nnc12` belongs 196 to 198 °C. To `Cn1cccc1S(=O)(=O)NC(C)(C)C` belongs 125 to 126 °C. To `CCCCc1c(/C=C/C(=O)NCCCCCCc2cncnc2)cc(OC)c2ccccc12` belongs 128 to 129 °C; to `Cc1cc(OC(C)(C)C(=O)O)cc(C)c1C`, 77 to 78 °C; to `COC(=O)COc1ccc(NC(=O)CO)cc1`, 148 to 150 °C. `Nc1cc(Cl)cnc1Oc1ccc(O)cc1` had a melting point of 174 °C. To `COc1ccc(C2CC(=O)CCC2[N+](=O)[O-])cc1OC` (configuration not stated) belongs 147 to 148 °C. `Cc1cccc(C2c3ccccc3S(=O)(=O)N2C)c1` (single isomer, unassigned; (+)) gave a melting point of 154 °C. Under `Cn1cc(S(=O)(=O)Cl)c(=O)c2ccccc21` stands 313 to 315 °C; under `COc1cc(OC)c(C(=O)N(C)OC)cc1Cl`, 97 to 99 °C. In the case of `O=C1c2ccccc2-c2c1c(=O)[nH]c1ccccc21`, the melting point was greater than 290 °C. Under `COC(=O)C1CNC(CCc2ccccc2)=N1` (racemic) stands 136 to 141 °C; under `Cc1ccc2ccccc2c1COc1ccc(C(=O)NC[C@@H](C(=O)NO)N2CCN(S(C)(=O)=O)CC2)cc1`, 155 °C. To `CCCCCCCCCCCCc1cc(C(C(=O)Nc2c(OC)cc(OC)cc2OC)c2ccccc2)on1` (configuration not stated) belongs 88 to 97 °C; to `CC1(C)CCc2c(N3CCCC3)nc3sc4c(NCc5cncc6ccccc56)ncnc4c3c2C1`, 276 to 277 °C; to `CCc1ccc(C(=O)CCCCCN2CCC(CNC(=O)c3cc(Cl)c(N)cc3OC)CC2)cc1`, 140 to 145 °C. With `CC(C)(C)OC(=O)C1CCCNN1C(=O)C(CCC(=O)O)N1C(=O)c2ccccc2C1=O` (configuration not stated), the melting point fell in the range of 132 to 134 °C. Under `COc1ccc(C(=O)n2c(Br)c(Br)c(C#N)c2Br)cc1` stands 86 to 89 °C; under `NC(=O)CNC(=O)c1cccc(-c2cccc3cc(Cc4cc(F)cc(Cl)c4)sc23)c1F`, 46 to 47 °C; under `Cc1ccc(C2SCC(=O)CS2)cc1`, 112 to 113 °C.
